# Reference: US11726079B2, “Lighting systems and methods of using lighting systems for in vitro potency assay for Photofrin” (Concordia Laboratories, Inc., priority 2012, dated 2023)
# “And” between values parts separate entries of the source, which are not always exact repeats. Equal entries are not always repeated.
# Tests used:
# [1] = test system: A549 human lung carcinoma cells; assay: Control for the activity of Photofrin® in the absence of irradiation (+D, −L), viability relative to cell control; assay type: cell-based
# Description: The plate is covered with a black lid and placed in the incubator for four hours to allow absorption of the drug by the cells. The plate is then removed from the incubator, the drug is aspirated, the wells are washed with Dulbecco's phosphate buffered saline (DPBS) and fresh, pre-warmed medium is added to the wells. The columns of wells not to be irradiated are covered with foil strips, the black lid is exchanged for a clear lid, and the plate is then moved to the irradiation template beneath the light beam and irradiated for ten minutes, for a total of 3.3 joules. The plate is returned to the incubator and assessed for viability using XTT after 24 hours. The wells covered with foil strips are important controls for the activity of Photofrin® in the absence of irradiation and the effect of light on the cells in the absence of drug.
# The optical absorbance of the wells in column 1 (high drug concentration, no cells) is evaluated for absorption at 450 nm to ensure that the drug is not interfering with the XTT assay. The percent viability of each of the wells in columns 2-9 and 11 is calculated relative to the mean value of column 10 (cell control, no drug, no light). For each dose response obtained, a four parameter logistic (4PL) nonlinear regression analysis is performed of the percent viability versus the log-Photofrin® concentration. The point of inflection of the regression curve (C value) is defined as the EC50 and used in the calculation of relative potency. Curve fitting and calculation of the EC50 is performed with Softmax v5.4.2 (Molecular Devices, Inc.) or Prism v.5.04 (GraphPad, Software Inc.) software. The mean percent viability of columns 9 and 11 is also calculated.
# Critical aspects of the system suitability will include the acceptable performance of the assay controls. The expectation is that the viability of cells receiving no drug but with light (−D, +L) and cells receiving a high concentration of drug but no light (+D, −L) should approximate the viability of the cell control not receiving drug or light (CC). The percent viability of all samples is based on the CC, which is calculated set at 1.00 and is not included in the Table.
# A549 cells = assay: Homogeneity of irradiation: every well of an A549 plate treated equally with Photofrin®; assay type: cell-based, human; conditions: Photofrin® at 1.5 μg/mL; wells in the middle of the plate; relative to a second plate of cells without drug; before lengthening the light path from 54 cm to 95.5 cm
# Excerpt: The Xenon arc lamp produces a bright, broad wavelength irradiance beam that when collimated still retains a bright center. This lack of homogeneity in the intensity of the light beam has to be minimized in order to achieve even irradiation over the area of the 96-well plate. For this purpose, two plano-convex lenses are introduced into the light path to approximate a Kohler illumination (FIG. 1). After an initial dosing ranging study of Photofrin® (data not shown), each well of an assay plate containing A549 cells is treated equally with Photofrin® at 1.5 μg/mL to assess homogeneity of the irradiation. For this experiment, the percent viability is calculated relative to a second plate of cells without drug. […] To address the inhomogeneity in irradiance, the distance from the final bandpass filter to the sample is raised approximately 2-fold from 54 cm to 95.5 cm while the first surface of the plano-convex lenses is maintained at 13.6 cm from the 650 nm cut-off filter. By increasing the length of the light path, the center zone of irradiance is broadened to cover the area of the entire plate (FIG. 13). As the light path is lengthened, the overall irradiance is decreased, necessitating the use of a higher Photofrin® concentration.
substance,measurement,setting,value
porfimer sodium [Photofrin®],"+D, −L/CC","[1]; 70 μg/mL drug, no irradiation, ratio to cell control (no drug, no irradiation), Plate 1 (left to right dilution; controls in columns 9-11)",0.994
same,"+D, −L/CC","[1]; 70 μg/mL drug, no irradiation, ratio to cell control, Plate 2 (placement Test, Standard; controls in columns 9-11)",0.926
same,"+D, −L/CC","[1]; 70 μg/mL drug, no irradiation, ratio to cell control, Plate 3 (right to left dilution; controls in columns 9-11)",0.981
same,"+D, −L/CC","[1]; 70 μg/mL drug, no irradiation, ratio to cell control, Plate 4 (left to right dilution; controls in columns 9-11)",0.928
same,"+D, −L/CC","[1]; 70 μg/mL drug, no irradiation, ratio to cell control, Plate 5 (left to right dilution; controls in columns 2-4)",1.00
same,"+D, −L/CC, Mean","[1]; 70 μg/mL drug, no irradiation, ratio to cell control, mean across Plates 1-5 of positional analysis",0.967
same,"+D, −L","[1]; high concentration of drug, no light, viability based on cell control set at 1.00, experiments of Table 1, black plates",1.05 and 0.893 and 1.09
same,"+D, −L","[1]; high concentration of drug, no light, viability based on cell control set at 1.00, experiments of Table 1, clear plates (significant cell killing, excluded from the analysis)",0.012 and 0.019 and 0.024
same,"+D, −L","[1]; high concentration of drug, no light, viability based on cell control set at 1.00, experiments of Table 2, black plates",1.06 and 0.947 and 0.986
same,"+D, −L","[1]; high concentration of drug, no light, viability based on cell control set at 1.00, experiments of Table 4, black plates",0.994 and 0.926 and 0.981 and 0.928 and 1.00
same,"+D, −L","[1]; high concentration of drug, no light, viability based on cell control set at 1.00, experiments of Table 5, black plates",0.999 and 1.02 and 1.00 and 1.29 and 0.973
same,"+D, −L","[1]; high concentration of drug, no light, viability based on cell control set at 1.00, experiments of Table 6, black plates",0.990 and 0.981 and 0.977
same,"+D, −L","[1]; high concentration of drug, no light, viability based on cell control set at 1.00, experiments of Table 7, black plates",0.973 and 1.00
same,"+D, −L","[1]; high concentration of drug, no light, viability based on cell control set at 1.00, experiments of Table 8, black plates",1.02 and 0.992 and 0.995 and 0.959 and 0.985
same,"+D, −L","[1]; high concentration of drug, no light, viability based on cell control set at 1.00, experiments of Table 9, black plates",1.01 and 0.898 and 0.959
same,"+D, −L","[1]; high concentration of drug, no light, viability based on cell control set at 1.00, experiments of Table 10, black plates",1.09 and 1.08 and 0.995
same,"+D, −L","[1]; high concentration of drug, no light, viability based on cell control set at 1.00, experiments of Table 11, black plates",0.980 and 0.973 and 1.02 and 0.956
same,"+D, −L","[1]; high concentration of drug, no light, viability based on cell control set at 1.00, experiments of Table 12, black plates",0.990 and 0.906 and 1.03 and 1.02 and 1.00
same,"+D, −L, Mean","[1]; high concentration of drug, no light, viability based on cell control set at 1.00, mean of all experiments, clear plate values excluded",1.00
same,viability,A549 cells,103%
